Reference: ChEMBL document CHEMBL4673280, “Discovery and SAR studies of 2-alkyl-3-phenyl-2,4,5,6,7,8-hexahydropyrazolo[3,4-d]azepines as 5-HT inhibitors leading to the identification of a clinical candidate” (Bioorg Med Chem Lett, 2021)
Values joined by “and” are separate entries in the source; they are usually repeats but may differ in a detail not shown here. Equal entries are not always repeated.

Key:
[1] = Clearance in rat at 3 mg/kg, po; assay type: ADME, organism-based; settings: in vivo
[2] = Clearance in rat plasma at 10 mg/kg, po; assay type: ADME, organism-based
[3] = Metabolic stability in rat liver microsomes assessed as half life; assay type: ADME, Microsome
[4] = Toxicity in rat assessed as effect on body temperature at 0.03 to 1 mg/kg, po; assay type: organism-based; settings: in vivo, dose 0.03-1 mg/kg
[5] = Half life in dog at 10 mg/kg, po; assay type: ADME, organism-based, Canis lupus familiaris; settings: in vivo
[6] = Oral bioavailability in rat; assay type: ADME, organism-based; settings: in vivo
[7] = Tmax in rat at 3 mg/kg, po; assay type: ADME, organism-based; settings: in vivo
[8] = In vivo antagonist activity at 5-HT2A receptor in po dosed mouse assessed as inhibition of DOI-induced head twitch measured after 60 mins; assay type: functional; settings: 1 h
[9] = Ratio of drug level in rat brain to plasma at 10 mg/kg, po; assay type: ADME, organism-based; settings: brain and plasma, read-out: BPR
[10] = Cmax in rat at 3 mg/kg, po; assay type: ADME, organism-based; design: route oral, dose 3 mg/kg; settings: in vivo
[11] = Cmax in rat at 3 mg/kg, sc; assay type: ADME, organism-based; design: route subcutaneous, dose 3 mg/kg; settings: in vivo
[12] = target: T1, Adrenergic receptor alpha-1 (Rattus norvegicus, UniProt P15823+P23944+P43140); assay: Displacement of […] from alpha1 adrenergic receptor in rat cortex membrane incubated for 60 mins by competitive radioligand binding assay; assay type: cell membranes
T1 sequence (P15823 whole entry): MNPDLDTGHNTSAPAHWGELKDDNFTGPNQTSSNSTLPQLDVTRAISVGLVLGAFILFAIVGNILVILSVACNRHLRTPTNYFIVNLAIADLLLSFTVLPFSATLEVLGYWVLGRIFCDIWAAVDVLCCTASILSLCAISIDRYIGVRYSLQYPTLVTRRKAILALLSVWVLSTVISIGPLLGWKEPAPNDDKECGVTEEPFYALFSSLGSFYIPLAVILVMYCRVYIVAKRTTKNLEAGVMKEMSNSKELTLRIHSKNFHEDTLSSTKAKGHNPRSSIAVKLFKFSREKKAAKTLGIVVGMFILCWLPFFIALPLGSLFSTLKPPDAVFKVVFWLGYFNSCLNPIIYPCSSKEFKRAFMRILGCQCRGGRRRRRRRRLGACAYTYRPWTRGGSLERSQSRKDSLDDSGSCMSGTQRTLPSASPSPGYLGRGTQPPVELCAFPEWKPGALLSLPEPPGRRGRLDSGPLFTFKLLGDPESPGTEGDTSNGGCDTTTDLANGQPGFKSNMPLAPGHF
T1 sequence (P23944 whole entry): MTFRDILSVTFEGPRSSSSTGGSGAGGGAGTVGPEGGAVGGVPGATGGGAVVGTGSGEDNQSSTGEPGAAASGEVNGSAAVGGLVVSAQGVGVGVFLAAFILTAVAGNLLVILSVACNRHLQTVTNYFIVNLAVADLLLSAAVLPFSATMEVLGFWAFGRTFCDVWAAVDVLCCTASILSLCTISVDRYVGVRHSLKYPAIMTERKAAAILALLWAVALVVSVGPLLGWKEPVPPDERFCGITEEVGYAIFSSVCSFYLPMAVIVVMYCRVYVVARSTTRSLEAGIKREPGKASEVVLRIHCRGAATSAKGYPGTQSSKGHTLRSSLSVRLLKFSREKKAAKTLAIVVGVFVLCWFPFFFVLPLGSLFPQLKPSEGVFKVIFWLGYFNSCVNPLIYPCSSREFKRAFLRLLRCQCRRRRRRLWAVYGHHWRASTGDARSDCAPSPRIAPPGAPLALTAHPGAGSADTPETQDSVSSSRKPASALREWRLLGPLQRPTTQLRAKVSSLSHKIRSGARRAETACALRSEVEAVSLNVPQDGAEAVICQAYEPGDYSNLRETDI
T1 sequence (P43140 whole entry): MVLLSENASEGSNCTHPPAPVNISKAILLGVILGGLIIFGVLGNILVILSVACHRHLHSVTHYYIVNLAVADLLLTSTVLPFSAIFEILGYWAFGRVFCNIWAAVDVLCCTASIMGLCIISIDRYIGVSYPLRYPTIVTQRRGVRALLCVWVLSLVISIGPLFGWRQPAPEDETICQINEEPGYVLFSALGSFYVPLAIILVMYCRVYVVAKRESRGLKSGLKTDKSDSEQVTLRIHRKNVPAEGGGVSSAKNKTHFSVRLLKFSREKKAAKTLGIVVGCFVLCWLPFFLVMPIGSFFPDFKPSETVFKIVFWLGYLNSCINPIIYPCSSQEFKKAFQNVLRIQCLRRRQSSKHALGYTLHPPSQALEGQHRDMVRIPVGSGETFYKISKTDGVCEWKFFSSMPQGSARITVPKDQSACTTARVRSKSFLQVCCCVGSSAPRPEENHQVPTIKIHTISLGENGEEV

[13] = Ex vivo receptor occupancy at 5-HT2A receptor in orally dosed rat frontal cortex measured after 1 hr; assay type: functional; settings: po
[14] = Oral bioavailability in dog; assay type: ADME, organism-based, Canis lupus familiaris; settings: in vivo
[15] = Clearance in rat at 3 mg/kg, sc; assay type: ADME, organism-based; settings: in vivo
[16] = target: 5-hydroxytryptamine receptor 7 (Rattus norvegicus, UniProt P32305); assay: Displacement of [3H]-CT from rat 5-HT7 receptor expressed in HEK293 cells by competitive radioligand binding assay; assay type: cell-based
5-hydroxytryptamine receptor 7 (Rattus norvegicus, UniProt P32305), sequence (P32305 whole entry): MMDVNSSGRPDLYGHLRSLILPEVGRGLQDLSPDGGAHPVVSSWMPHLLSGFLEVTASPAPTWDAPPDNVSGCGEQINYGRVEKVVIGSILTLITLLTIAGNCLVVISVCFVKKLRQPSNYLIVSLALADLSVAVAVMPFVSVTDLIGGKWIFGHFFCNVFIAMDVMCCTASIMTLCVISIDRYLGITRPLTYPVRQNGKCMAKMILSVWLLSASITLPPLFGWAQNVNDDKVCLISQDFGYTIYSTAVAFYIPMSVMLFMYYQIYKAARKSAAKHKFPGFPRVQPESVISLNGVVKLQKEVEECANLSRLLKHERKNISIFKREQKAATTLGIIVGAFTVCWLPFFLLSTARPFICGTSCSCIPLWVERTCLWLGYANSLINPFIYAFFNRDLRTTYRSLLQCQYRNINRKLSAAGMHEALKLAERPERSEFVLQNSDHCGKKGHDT

[17] = target: 5-hydroxytryptamine receptor 2A (Homo sapiens, UniProt P28223); assay: Displacement of [3H]-ketanserin from human 5-HT2A receptor by competitive radioligand binding assay
5-hydroxytryptamine receptor 2A, sequence (P28223 whole entry): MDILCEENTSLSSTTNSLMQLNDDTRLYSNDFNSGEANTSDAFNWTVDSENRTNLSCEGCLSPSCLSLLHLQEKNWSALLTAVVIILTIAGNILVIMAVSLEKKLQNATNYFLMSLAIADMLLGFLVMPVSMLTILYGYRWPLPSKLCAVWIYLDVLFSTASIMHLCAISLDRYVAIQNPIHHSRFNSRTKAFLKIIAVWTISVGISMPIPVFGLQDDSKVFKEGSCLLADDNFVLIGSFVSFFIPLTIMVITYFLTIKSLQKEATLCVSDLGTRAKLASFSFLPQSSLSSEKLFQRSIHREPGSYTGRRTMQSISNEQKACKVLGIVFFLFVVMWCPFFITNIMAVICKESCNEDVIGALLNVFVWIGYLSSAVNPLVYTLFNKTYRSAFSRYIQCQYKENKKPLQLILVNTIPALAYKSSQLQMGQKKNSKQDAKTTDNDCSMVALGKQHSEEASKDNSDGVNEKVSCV

[18] = AUC in rat at 3 mg/kg, po; assay type: ADME, organism-based; design: dose 3 mg/kg; settings: in vivo
[19] = Tmax in rat at 3 mg/kg, sc; assay type: ADME, organism-based; settings: in vivo
[20] = Oral bioavailability in monkey; assay type: ADME, organism-based, Macaca mulatta; settings: rhesus monkey, in vivo
[21] = AUC in rat plasma at 10 mg/kg, po; assay type: ADME, organism-based; design: dose 10 mg/kg
[22] = target: 5-hydroxytryptamine receptor 2B (Homo sapiens, UniProt P41595); assay: Displacement of [3H]-ketanserin from human 5-HT2B receptor by competitive radioligand binding assay
5-hydroxytryptamine receptor 2B, sequence (P41595 whole entry): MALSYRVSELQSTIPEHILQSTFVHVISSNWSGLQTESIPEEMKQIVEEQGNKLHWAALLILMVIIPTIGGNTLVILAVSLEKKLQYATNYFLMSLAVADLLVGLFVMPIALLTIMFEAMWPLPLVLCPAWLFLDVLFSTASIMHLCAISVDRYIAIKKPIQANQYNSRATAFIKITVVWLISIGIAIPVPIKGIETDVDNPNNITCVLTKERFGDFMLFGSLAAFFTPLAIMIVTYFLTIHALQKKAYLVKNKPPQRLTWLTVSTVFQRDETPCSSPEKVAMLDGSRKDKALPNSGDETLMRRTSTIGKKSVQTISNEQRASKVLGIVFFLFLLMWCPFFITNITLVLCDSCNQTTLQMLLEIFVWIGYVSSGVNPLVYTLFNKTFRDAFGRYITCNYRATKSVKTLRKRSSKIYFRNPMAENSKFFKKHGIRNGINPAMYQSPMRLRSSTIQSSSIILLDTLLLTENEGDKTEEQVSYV

[23] = Clearance in rat brain at 10 mg/kg, po; assay type: ADME, organism-based; settings: in vivo
[24] = Protein binding in human plasma assessed as unbound fraction; assay type: ADME, cell-free
[25] = Half life in rat plasma at 10 mg/kg, po; assay type: ADME, organism-based
[26] = Tmax in rat plasma at 10 mg/kg, po; assay type: ADME, organism-based
[27] = Clearance in rat at 1 mg/kg, iv; assay type: ADME, organism-based; settings: in vivo
[28] = Half life in rat at 3 mg/kg, po; assay type: ADME, organism-based; settings: in vivo
[29] = Half life in rat brain at 10 mg/kg, po; assay type: ADME, organism-based
[30] = Half life in non-human primates at 5 mg/kg, po; assay type: ADME, organism-based; settings: in vivo
[31] = target: 5-hydroxytryptamine receptor 7 (Homo sapiens, UniProt P34969); assay: Inverse agonist activity at 5-HT7 receptor (unknown origin) by cAMP functional assay
5-hydroxytryptamine receptor 7 (Homo sapiens, UniProt P34969), sequence (P34969 whole entry): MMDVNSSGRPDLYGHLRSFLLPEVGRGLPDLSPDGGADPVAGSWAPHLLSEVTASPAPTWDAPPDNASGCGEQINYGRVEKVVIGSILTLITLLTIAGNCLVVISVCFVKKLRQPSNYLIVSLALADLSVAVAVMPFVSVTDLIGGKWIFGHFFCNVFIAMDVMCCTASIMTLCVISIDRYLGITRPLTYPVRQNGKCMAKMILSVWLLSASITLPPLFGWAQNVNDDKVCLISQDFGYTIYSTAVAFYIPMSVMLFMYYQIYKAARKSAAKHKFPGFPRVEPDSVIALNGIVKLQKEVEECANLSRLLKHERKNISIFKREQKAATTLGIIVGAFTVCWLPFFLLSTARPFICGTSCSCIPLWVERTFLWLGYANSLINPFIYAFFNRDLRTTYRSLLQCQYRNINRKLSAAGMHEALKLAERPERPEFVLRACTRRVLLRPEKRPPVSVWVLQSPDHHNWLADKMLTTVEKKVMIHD

[32] = AUC in rat at 1 mg/kg, iv; assay type: ADME, organism-based; design: dose 1 mg/kg; settings: in vivo
[33] = Metabolic stability in human liver microsomes assessed as half life; assay type: ADME, Microsome
[34] = AUC in rat at 3 mg/kg, sc; assay type: ADME, organism-based; design: dose 3 mg/kg; settings: in vivo
[35] = Plasma concentration that yields to require for maximal inhibition of 5-HT7 receptor mediated hypothermia in 5-CT-stimulated rat at 0.3 mg/kg, po compound administered 20 mins prior to 5-CT injection; assay type: organism-based

With `CC(C)n1nc2c(c1-c1ccc(F)cc1)CCNCC2` the CL/F [1] was 6.67 mL/min, the CL/F [2] was 3.33 mL/min and the half-life [3] was greater than 1 h. The Activity [4] was “Non-Toxic”, the half-life [5] was 10.6 h and the bioavailability [6] was 100%. It also gave a Tmax [7] of 1.7 h, an ED50 [8] of 0.3 mg/kg and a Kp [9] greater than 1. For the same compound, the Cmax [10] was 190 ng/mL and 700 nM, the Cmax [11] was 260 ng/mL and 940 nM and the Ki [12] was 170 nM. For the same compound, the ED50 [13] was 0.8 mg/kg, the bioavailability [14] was 98% and the CL/F [15] was 6.67 mL/min. It also gave a Ki [16] of 8 nM, a Ki [17] of 8 nM and an AUC [18] of 9.2 µM·h. The Tmax [19] was 0.75 h, the bioavailability [20] was 72% and the AUC [21] was 57 µM·h. For the same compound, the Ki [22] was 19 nM, the CL [23] was 0.1 L/h and the fraction unbound [24] was 0.3. For the same compound, the half-life [25] was 6 h, the Tmax [26] was 1 h and the clearance [27] was 6.67 mL/min. For the same compound, the half-life [28] was 4.3 h, the half-life [29] was 6.3 h and the half-life [30] was 11.4 h. The IC50 [31] was 100 nM, the AUC [32] was 2.8 µM·h and the half-life [33] was greater than 1 h. It also gave an AUC [34] of 7.7 µM·h and a concentration at 20 min [35] of 27 ng/mL.
